The subject of series [1] is adult patients diagnosed with DCP, choreiform predominant. Kind of series: Example 3: Phase 3 efficacy study in adults. The series is classed as in vivo, human. The procedure: (§1) A Phase 3 study to evaluate the efficacy and safety of deutetrabenazine is performed on a population consisting of male and female patients, diagnosed with DCP. Patients may be included in the study only if they meet all of the following criteria: • 1. Patient is older than 18 years of age at baseline. • 2. Patient has had cerebral palsy (CP) symptoms since infancy (≤2 years). • 3. Patient has a diagnosis of DCP according to the Surveillance of Cerebral Palsy in Europe criteria. • 4. Patient has a total score of ≥10 on the MD-CRS part II items at the baseline visit, based on investigator scoring of chorea. • 5. Patient's symptoms are causing functional problems determined by a Clinical Global
Impression of Severity (CGI-S) score of 4 or greater based on investigator scoring. • 6. Choreiform is the predominant movement disorder as assessed by the EAB at screening.
(§2) Patients will receive 6 mg to 48 mg of deutetrabenazine. The titration scheme and maximum dose follows the one in the parent study, Example 1, supra.

For series [2], the system named is pediatric patients diagnosed with DCP, predominant motor symptoms dystonic. Kind of series: Example 4: Phase 3 efficacy study, predominantly dystonic DCP. The series is classed as in vivo, human. How it is done:
as §1, with “6 through” for “older than”, “age (inclusive)” for “age”
Impression of Severity (CGI-S) score of 4 or greater based on investigator scoring. • 6. Patient's predominant motor symptoms are dystonic.
as §2

Series [3] has as its system patients (age 6 through 18 years) with DCP with predominant choreiform movement disorder.
Series [4] has as its system children and adolescents with dyskinesia in cerebral palsy.
The conditions of series [5]: relative to tetrabenazine; U.S. Pat. No. 8,524,733; cited from earlier work.
Another series has as its system patients with CP. The conditions noted are these: cited from earlier work.
Where [6] appears, read: versus placebo, from baseline to week 15.

As for `[2H]C([2H])([2H])Oc1cc2c(cc1OC([2H])([2H])[2H])[C@H]1CC(=O)[C@H](CC(C)C)CN1CC2` (racemic) [deutetrabenazine, (RR,SS)-1,3,4,6,7,11b-hexahydro-9,10-di(methoxy-d3)-3-(2-methylpropyl)-2H-benzo[a]quinolizin-2-one], the safety profile entry in series [1] is reported as “favorable safety profile”. Further, the “abnormal involuntary movements associated with dyskinesia in cerebral palsy” value in series [1] (6 mg to 48 mg) was “reduce abnormal involuntary movements”. In addition, the safety profile entry in series [2] was “favorable safety profile”. Moreover, the “dystonic abnormal involuntary movements associated with dyskinesia in cerebral palsy” value in series [2] (6 mg to 48 mg) is “reduce dystonic abnormal involuntary movements”. In addition, in series [3] (6-48 mg/day oral, versus placebo), the “overall safety and efficacy of treatment” value is “safe and effective”. For the same compound, the PGI-I response entry in series [3] (Much Improved or Somewhat Improved in the PGI-I score) is given as “demonstrate a PGI-I response”. Further, in series [3] (Much Improved or Very Much Improved in the CGI-I score), the CGI-I response entry is “demonstrate a CGI-I response”. For the same compound, the CaGI-I response result in series [3] (Much Improved or Very Much Improved in the CaGI-I score) is “demonstrate a CaGI-I response”. For the same compound, the PEDI-CAT entry in series [3] (activities of daily living, parent/caregiver completed) was “improvement”. Moreover, in series [3] (in vivo), the UHDRS-TMC result is “significant reductions”; the UHDRS-TMD result is given as “significant reductions”; the UHDRS-TMS result is reported as “significant reductions”; the “safety by C-SSRS, ESRS, CBCL, ESS and lack of serious adverse events” value is “safe”. The “CP module of the PedsQL” value in series [3] (quality of life, patient/caregiver) is listed as “significant reductions”. In addition, in series [3] (reduction of >1 point in the CGI-S score), the CGI-S response result is “demonstrate a CGI-S response”. Besides, in series [3] (setting [6]), the “reduction in the CGI-I score” value was 0.5-0.7 points, the “reduction in the CaGI-I score” value is recorded as 0.5-0.7 points, the “reduction in the MD-CRS part I total score” value is 2-4 points and the “reduction in the MD-CRS part II total score” value was 0.5-4 points. Also, the “all primary and secondary endpoints” value in series [3] (versus placebo, week 15) was “significant improvements”. Further, the safety profile entry in series [4] (in vivo) is on record as “favorable safety profile”. Moreover, the “abnormal involuntary movements associated with dyskinesia in cerebral palsy” value in series [4] (long term administration of tolerable amounts) is reported as “reduce abnormal involuntary movements”. Further, the “half-life of its active metabolites” value in series [5] was “increased half-life”.
As for `Nc1ccncc1` [Dalfampridine], the functional improvement result in the series on patients with CP is “failed to demonstrate functional improvement”.

Values taken from US11324732B2, “Methods for the treatment of dyskinesia in cerebral palsy” (AUSPEX PHARMACEUTICALS, INC., priority 2018, dated 2022).
